Data published in ChEMBL document CHEMBL5252541, “Repurposing antipsychotic drugs into antifungal agents: Synergistic combinations of azoles and bromperidol derivatives in the treatment of various fungal infections” (Eur J Med Chem, 2017).
The source made the active and inactive calls. No cut-off for these calls is given here.

Tests used:
Nakaseomyces glabratus [1] = assay: Additive antifungal activity against Candida glabrata ATCC 2001 assessed as fractional inhibitory concentration index measured for 72 hrs in presence of posaconazole; assay type: functional
Nakaseomyces glabratus [2] = assay: Antifungal activity against Candida glabrata ATCC 2001 measured after 48 hrs by broth microdilution analysis; assay type: functional
Candida albicans [3] = assay: Synergistic antifungal activity against Candida albicans ATCC 90819 assessed as fractional inhibitory concentration index measured for 72 hrs in presence of posaconazole; assay type: functional
Nakaseomyces glabratus [4] = assay: Additive antifungal activity against Candida glabrata ATCC 2001 assessed as fractional inhibitory concentration index measured for 72 hrs in presence of voriconazole; assay type: functional
Candida albicans [5] = assay: Partial synergistic antifungal activity against Candida albicans ATCC MYA-2310 assessed as fractional inhibitory concentration index measured for 72 hrs in presence of voriconazole; assay type: functional
Nakaseomyces glabratus [6] = assay: Synergistic antifungal activity against Candida glabrata ATCC 2001 assessed as fractional inhibitory concentration index measured for 72 hrs in presence of voriconazole; assay type: functional
Candida albicans [7] = assay: Additive antifungal activity against Candida albicans ATCC 64124 assessed as fractional inhibitory concentration index measured for 72 hrs in presence of fluconazole; assay type: functional
Candida albicans [8] = assay: Additive antifungal activity against Candida albicans ATCC MYA-2876 assessed as fractional inhibitory concentration index measured for 72 hrs in presence of posaconazole; assay type: functional
HEK293 [9] = assay: Cytotoxicity against HEK293 cells assessed as cell survival up to 4 microg/ml by XTT assay; assay type: toxicity, cell-based; conditions: human, dose < 4 µg/ml
Nakaseomyces glabratus [10] = assay: Synergistic antifungal activity against Candida glabrata ATCC 2001 assessed as fractional inhibitory concentration index measured for 72 hrs in presence of posaconazole; assay type: functional
Candida albicans [11] = assay: Partial synergistic antifungal activity against Candida albicans ATCC 10231 assessed as fractional inhibitory concentration index measured for 72 hrs in presence of ketoconazole; assay type: functional
J774.A1 [12] = assay: Cytotoxicity against mouse J774.A1 cells assessed as cell survival at 16 microg/ml in presence of voriconazole by XTT assay; assay type: toxicity, cell-based; conditions: dose 16 µg/ml
Candida albicans [13] = assay: Fungicidal activity against Candida albicans ATCC 64124 assessed as reduction in colony forming units at 8 times MIC incubated for 24 hrs by time kill assay; assay type: functional, organism-based
[14] = Cytotoxicity against mouse J774.A1 cells assessed as cell survival at 32 microg/ml by XTT assay; assay type: toxicity, cell-based; conditions: at 32 µg/mL, read-out: Activity
[15] = Cytotoxicity against mouse J774.A1 cells assessed as cell survival at 64 microg/ml by XTT assay; assay type: toxicity, cell-based; conditions: at 64 µg/mL, read-out: Activity
Candida albicans [16] = assay: Additive antifungal activity against Candida albicans ATCC MYA-1237 assessed as fractional inhibitory concentration index measured for 72 hrs in presence of posaconazole; assay type: functional
Candida albicans [17] = assay: Antifungal activity against Candida albicans ATCC MYA-1237 measured after 48 hrs by broth microdilution analysis; assay type: functional
Candida albicans [18] = assay: Partial synergistic antifungal activity against Candida albicans ATCC MYA-2310 assessed as fractional inhibitory concentration index measured for 72 hrs in presence of posaconazole; assay type: functional
HEK293 [19] = assay: Cytotoxicity against HEK293 cells assessed as cell survival at 8 microg/ml by XTT assay; assay type: toxicity, cell-based; conditions: human, dose 8 µg/ml
Candida albicans [20] = assay: Antifungal activity against Candida albicans ATCC MYA-1003 measured after 48 hrs by broth microdilution analysis; assay type: functional
BEAS-2B = assay: Cytotoxicity against human BEAS-2B cells assessed as cell survival up to 4 microg/ml by XTT assay; assay type: toxicity, cell-based; conditions: dose < 4 µg/ml
Candida albicans [21] = assay: Antifungal activity against Candida albicans ATCC 10231 measured after 48 hrs by broth microdilution analysis; assay type: functional
Candida albicans [22] = assay: Partial synergistic antifungal activity against Candida albicans ATCC MYA-1003 assessed as fractional inhibitory concentration index measured for 72 hrs in presence of posaconazole; assay type: functional
[23] = Cytotoxicity against HEK293 cells assessed as cell survival by XTT assay; assay type: toxicity, cell-based; conditions: human, read-out: Activity
Candida albicans [24] = assay: Synergistic antifungal activity against Candida albicans ATCC 64124 assessed as fractional inhibitory concentration index measured for 72 hrs in presence of posaconazole; assay type: functional
Candida albicans [25] = assay: Additive antifungal activity against Candida albicans MYA-1003 assessed as fractional inhibitory concentration index measured for 72 hrs in presence of voriconazole
Candida albicans [26] = assay: Synergistic antifungal activity against Candida albicans ATCC 10231 assessed as compound MIC measured after 48 hrs in presence of posaconazole by checkboard based microplate reader analysis; assay type: functional
Candida albicans [27] = assay: Synergistic antifungal activity against Candida albicans ATCC 64124 assessed as compound MIC measured after 48 hrs in presence of itraconazole by checkboard based microplate reader analysis; assay type: functional
[28] = Cytotoxicity against human BEAS-2B cells assessed as cell survival by XTT assay; assay type: toxicity, cell-based; conditions: read-out: Activity
[29] = Cytotoxicity against mouse J774.A1 cells assessed as cell survival by XTT assay; assay type: toxicity, cell-based; conditions: read-out: Activity
J774.A1 [30] = assay: Cytotoxicity against mouse J774.A1 cells assessed as cell survival up to 4 microg/ml by XTT assay; assay type: toxicity, cell-based; conditions: dose < 4 µg/ml
Candida albicans [31] = assay: Synergistic antifungal activity against Candida albicans ATCC 64124 assessed as compound MIC measured after 48 hrs in presence of ketoconazole by checkboard based microplate reader analysis; assay type: functional
J774.A1 [32] = assay: Cytotoxicity against mouse J774.A1 cells assessed as cell survival at 8 microg/ml by XTT assay; assay type: toxicity, cell-based; conditions: j774.a1, dose 8 µg/ml
[33] = Cytotoxicity against human HEK293 cells assessed as cell survival at 1 to 16 microg/ml in presence of posaconazole by XTT assay; assay type: toxicity, cell-based; conditions: at 1 to 16 µg/mL, dose 1-16 µg/ml
Candida albicans [34] = assay: Additive antifungal activity against Candida albicans ATCC MYA-2876 assessed as fractional inhibitory concentration index measured for 72 hrs in presence of voriconazole; assay type: functional
[35] = Cytotoxicity against human BEAS-2B cells assessed as cell survival at 8 microg/ml in presence of posaconazole by XTT assay; assay type: toxicity, cell-based; conditions: at 8 µg/mL, read-out: Activity
Candida albicans [36] = assay: Additive antifungal activity against Candida albicans ATCC 10231 assessed as fractional inhibitory concentration index measured for 72 hrs in presence of fluconazole; assay type: functional
HEK293 [37] = assay: Cytotoxicity against human HEK293 cells assessed as cell survival at 32 microg/ml in presence of voriconazole by XTT assay
Candida albicans [38] = assay: Antifungal activity against Candida albicans ATCC 90819 measured after 48 hrs by broth microdilution analysis; assay type: functional
Candida albicans [39] = assay: Fungicidal activity against Candida albicans ATCC 64124 assessed as reduction in colony forming units at 2 to 8 times MIC incubated after 6 hrs in presence of posaconazole by time kill assay; assay type: functional, organism-based
[40] = Cytotoxicity against mouse J774.A1 cells assessed as cell survival at 16 microg/ml by XTT assay; assay type: toxicity, cell-based; conditions: at 16 µg/mL, read-out: Activity
Candida albicans [41] = assay: Partial synergistic antifungal activity against Candida albicans ATCC 10231 assessed as fractional inhibitory concentration index measured for 72 hrs in presence of itraconazole; assay type: functional
Candida albicans [42] = assay: Partial synergistic antifungal activity against Candida albicans ATCC 10231 assessed as fractional inhibitory concentration index measured for 72 hrs in presence of posaconazole; assay type: functional

## O=C(CCCN1CCC(O)(c2ccc(Br)cc2)CC1)c1ccc(F)cc1 [BROMPERIDOL]
Nakaseomyces glabratus [1]
  fractional inhibitory concentration index (FICI): 0.51
Nakaseomyces glabratus [2]
  MIC: > 128 µg/mL
Candida albicans [3]
  fractional inhibitory concentration index (FICI): 0.5
Nakaseomyces glabratus [4]
  fractional inhibitory concentration index (FICI): 0.51
Candida albicans [5]
  fractional inhibitory concentration index (FICI): 0.53
Nakaseomyces glabratus [6]
  fractional inhibitory concentration index (FICI): 0.51
Candida albicans [7]
  fractional inhibitory concentration index (FICI): 1.5
Candida albicans [8]
  fractional inhibitory concentration index (FICI): 2
HEK293 [9]
  Activity: Non-Toxic
Nakaseomyces glabratus [10]
  fractional inhibitory concentration index (FICI): 0.5
Candida albicans [11]
  fractional inhibitory concentration index (FICI): 0.75
J774.A1 [12]
  Activity: Non-Toxic
Candida albicans [13]
  Activity: Active
[14]
  viability at 32 microg/ml: 50%
[15]
  viability at 64 microg/ml: 30%
Candida albicans [16]
  fractional inhibitory concentration index (FICI): 2
Candida albicans [17]
  MIC: > 128 µg/mL
Candida albicans [18]
  fractional inhibitory concentration index (FICI): 0.52
HEK293 [19]
  Activity: Non-Toxic
Candida albicans [20]
  MIC: > 128 µg/mL
BEAS-2B
  Activity: Non-Toxic
Candida albicans [21]
  MIC: > 128 µg/mL
Candida albicans [22]
  fractional inhibitory concentration index (FICI): 0.75
[23]
  viability: > 100%
Candida albicans [24]
  fractional inhibitory concentration index (FICI): 0.16
Candida albicans [25]
  fractional inhibitory concentration index (FICI): 0.52
Candida albicans [26]
  MIC: 64 µg/mL
Candida albicans [27]
  MIC: 64 µg/mL
[28]
  viability: > 100%
[29]
  viability: > 100%
J774.A1 [30]
  Activity: Non-Toxic
Candida albicans [31]
  MIC: 64 µg/mL
J774.A1 [32]
  Activity: Non-Toxic
[33]
  viability: 80%
Candida albicans [34]
  fractional inhibitory concentration index (FICI): 2
[35]
  viability at 8 microg/ml: 71%
Candida albicans [36]
  fractional inhibitory concentration index (FICI): 1.5
HEK293 [37]
  Activity: Non-Toxic
Candida albicans [38]
  MIC: > 128 µg/mL
Candida albicans [39]
  Activity: Active
[40]
  viability at 16 microg/ml: 72%
Candida albicans [41]
  fractional inhibitory concentration index (FICI): 0.75
Candida albicans [42]
  fractional inhibitory concentration index (FICI): 0.75
